Molecules are shown by their SMILES. Several values for one entry are separate records, joined by “and”; a condition that tells them apart may be missing. Equal values may be shown once.

The target of one series is T1, δ-ALA-D (Mus musculus, UniProt P10518).
T1 sequence (P10518 1-330): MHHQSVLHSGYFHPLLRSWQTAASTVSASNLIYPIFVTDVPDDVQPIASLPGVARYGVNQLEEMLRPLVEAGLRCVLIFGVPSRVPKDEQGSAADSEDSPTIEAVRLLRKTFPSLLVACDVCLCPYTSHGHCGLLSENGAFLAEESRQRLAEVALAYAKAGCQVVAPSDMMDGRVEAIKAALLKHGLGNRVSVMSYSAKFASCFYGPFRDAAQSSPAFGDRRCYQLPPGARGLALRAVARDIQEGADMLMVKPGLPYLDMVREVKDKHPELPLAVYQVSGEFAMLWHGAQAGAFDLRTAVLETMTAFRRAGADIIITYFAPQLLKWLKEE
Briefly: δ-ALA-D activity in tissue supernatants (in vitro toxicity). The following applies: mean ± SD (n = 3).

For series [1], the system named is Salmonella Typhimurium ATCC 14028. Briefly: agar disk diffusion test. The series is classed as cell-based. Conditions: S. Typhimurium, 1.0 × 10^8 CFU.mL^−1; 20 μL compound diluted in DMSO (1:1) per 6 mm disc; streptomycin 10 µg; mean of two repetitions. The text has this:
(§1) To evaluate the antimicrobial potential of the synthesized compounds, the following reference strains of bacteria, that are economically important in foods, were employed: Gram-positive Listeria monocytogenes ATCC 7644, Staphylococcus aureus ATCC 25923, and Bacillus cereus ATCC 11778; Gram-negative Salmonella Typhimurium ATCC 14028, Escherichia coli O157: H7 NCTC 12900 and the clinically important Pseudomonas aeruginosa ATCC 15442.
(§2) The antimicrobial activity assay using the disk diffusion test was realized using the methodology that is recommended by the Clinical Laboratory Standards Institute (CLSI). The determination of the minimum inhibitory concentration (MIC) and minimum bactericidal concentration (MBC) was performed using the macro dilution tube method, in accordance with Rota et al., with modifications. Details of these assays are provided in the Supplemental Material. […]
(§3) 2.1. Antimicrobial activity assay using the disk diffusion test
(§4) The disk diffusion test followed the methodology recommended by the Clinical Laboratory Standards Institute CLSI [4]. The inoculum was standardized by standard McFarland to the concentration of 10^8 CFU.mL−1 and spread on the surface of a Petri dish containing Mueller‐Hinton (MH) agar. Then, the paper disc (6 mm) was put on a plate impregnated with 20 μL of the testing compound previously diluted in DMSO (1:1) and incubated at 37 °C for 24 hours. Zone of inhibition ≥20 mm were considered as strong inhibition, <20–12 mm as moderate inhibition, and <12 mm no inhibition. A positive control with streptomycin antibiotic (10 μg) and a negative one, with paper discs impregnated with distilled water, were used […]
(§5) 2.4. Radical Scavenging Activity […]
(§6) The ABTS radical scavenging activity was determined according to the method described by Erel. Different concentrations of compounds 5a–d and 10 (10–500 μ M) were mixed with the ABTS+ solution, and the decrease in the absorbance at 734 nm was recorded.

Series [2] concerns Listeria monocytogenes ATCC 7644. The experiment in a line: agar disk diffusion test. The series is classed as cell-based. The following applies: L. monocytogenes, 1.0 × 10^8 CFU.mL^−1; 20 μL compound diluted in DMSO (1:1) per 6 mm disc; streptomycin 10 µg; mean of two repetitions.
Text: as §1, §2, §3, §4, §5, §6

For series [3], the system named is Escherichia coli O157: H7 NCTC 12900. The experiment in a line: agar disk diffusion test. Conditions: E. coli O157:H7, 1.0 × 10^8 CFU.mL^−1; 20 μL compound diluted in DMSO (1:1) per 6 mm disc; streptomycin 10 µg; mean of two repetitions. It counts as cell-based.
Text: as §1, §2, §3, §4, §5, §6
In general terms: Agar diffusion results depend on both activity and mobility in agar.

Series [4] concerns Staphylococcus aureus ATCC 25923. The experiment in a line: agar disk diffusion test. It counts as cell-based. Conditions: S. aureus, 1.0 × 10^8 CFU.mL^−1; 20 μL compound diluted in DMSO (1:1) per 6 mm disc; streptomycin 10 µg; mean of two repetitions.
Text: as §1, §2, §3, §4, §5, §6

In series [5] the test system is Pseudomonas aeruginosa ATCC 15442. Briefly: agar disk diffusion test. The series is classed as cell-based. The following applies: P. aeruginosa, 1.0 × 10^8 CFU.mL^−1; 20 μL compound diluted in DMSO (1:1) per 6 mm disc; streptomycin 10 µg; mean of two repetitions.
Text: as §1, §2, §3, §4, §5, §6

A short description of the next series: ABTS radical scavenging. Conditions: mean ± SD (n = 3); for IC50: read-out: ABTS radical scavenging IC50 (concentration compound required for 50% scavenging). How it is done:
The antioxidant properties of the synthesized compounds (5a–d and 10) were evaluated by three different methods in vitro: DPPH (1,1-diphenyl-2-picryl-hydrazyl) and ABTS^+ (2,2′-azino-bis(3-ethylbenzthiazoline-6-sulfonic acid) radical scavenging ability and ferric ion reducing antioxidant power (FRAP). All drugs were dissolved in dimethyl sulfoxide (DMSO) at concentrations of 1–500 µM. These assays were performed according to the literature and details of these experiments are described elsewhere (see the ‘Results and Discussion’ section for the references). […]
2.3. Antioxidant activity assays
The antioxidant properties of the synthesized compounds were evaluated by three different methods in vitro: DPPH and ABTS+ radical scavenging activity and ferric ion reducing antioxidant power (FRAP). All drugs were dissolved in dimethyl sulfoxide (DMSO). The experimental results were given as the means ± standard deviation (SD) to show the variations among the groups. The statistical analysis was performed using one‐way analysis of variance (ANOVA) followed by Newman‐Keuls multiple comparison test when appropriate. The differences were considered statistically significant at a probability of less than 5% (p < 0.05). All tests were performed at least three times in duplicate. The IC50 values (the concentration of sample required to scavenge 50% of the free radicals) were calculated from the graph of the scavenging effect percentage versus the […]
2.4. Radical Scavenging Activity
To determine if compounds 5a–d and 10 present in vitro antioxidant activity against free radicals, DPPH and ABTS+ scavenging capability were evaluated at different concentrations. […]
The ABTS radical scavenging activity was determined according to the method described by Erel. Different concentrations of compounds 5a–d and 10 (10–500 μ M) were mixed with the ABTS+ solution, and the decrease in the absorbance at 734 nm was recorded. […]
values, as calculated by the following equation:
I% = [(Ac−As/Ac) × 100] (1)
3. Ferric ion reducing antioxidant power (FRAP) […]
reducing capacity of compounds 5a–d and 10.
[8] with slight modifications.
They were homogenized in a 0.1 M
The supernatants were used for determination of the δ‐ALAD activity. […]
and 500 μL of distilled water. […]
and the absorbance was read at 555 nm.

For `CC(C)=CCCC(C)C(/C=[N+](\C)[O-])Sc1ccccc1` (stereo not shown) [5a, (E)-N,3,7-Trimethyl-2-(phenylthio)oct-6-en-1-imine oxide], the δ-ALA-D activity stood at 0.44 ± 0.09 nmol PBG.mg.tn‐1.h‐1 on δ-ALA-D (Brain, 10 μM); 0.42 ± 0.10 nmol PBG.mg.tn‐1.h‐1 at δ-ALA-D (Brain, 50 μM); 0.40 ± 0.11 nmol PBG.mg.tn‐1.h‐1 at δ-ALA-D (Brain, 100 μM); 0.36 ± 0.10 nmol PBG.mg.tn‐1.h‐1 on δ-ALA-D (Brain, 500 μM); 1.17 ± 0.05 nmol PBG.mg.tn‐1.h‐1 on δ-ALA-D (Kidney, 10 μM); 1.17 ± 0.07 nmol PBG.mg.tn‐1.h‐1 on δ-ALA-D (Kidney, 50 μM). In addition, the δ-ALA-D activity was 1.09 ± 0.08 nmol PBG.mg.tn‐1.h‐1 on δ-ALA-D (Kidney, 100 μM); 0.90 ± 0.08 nmol PBG.mg.tn‐1.h‐1 on δ-ALA-D (Kidney, 500 μM); 4.99 ± 0.84 nmol PBG.mg.tn‐1.h‐1 on δ-ALA-D (Liver, 10 μM); 4.87 ± 0.67 nmol PBG.mg.tn‐1.h‐1 at δ-ALA-D (Liver, 50 μM); 4.71 ± 0.89 nmol PBG.mg.tn‐1.h‐1 on δ-ALA-D (Liver, 100 μM); 4.46 ± 0.80 nmol PBG.mg.tn‐1.h‐1 on δ-ALA-D (Liver, 500 μM). The “Inhibition Zone” value in series [1] amounted to 8.5 mm; in series [2], 18 mm; in series [3] it was 11 mm; in series [4], 15 mm; in series [5], 8.5 mm. The “ABTS radical scavenging, percentage of inhibition in relation to control” value in the series “ABTS radical scavenging” (50 μM) is recorded as 11.74 ± 0.47 %; in “ABTS radical scavenging” (100 μM), 22.84 ± 1.02 %; in the series “ABTS radical scavenging” (500 μM) it was 77.61 ± 0.81 %. Besides, the IC50 in the series “ABTS radical scavenging” was 297 ± 1 µM.
Take `CC(C)=CCCC(C)C/C=[N+](\C)[O-]` (stereo not shown) [5d, (E)-N,3,7-trimethyloct-6-en-1-imine oxide]: the δ-ALA-D activity on δ-ALA-D (Brain, 10 μM) came to 0.29 ± 0.09 nmol PBG.mg.tn‐1.h‐1; on δ-ALA-D (Brain, 50 μM), 0.27 ± 0.10 nmol PBG.mg.tn‐1.h‐1; at δ-ALA-D (Brain, 100 μM) it was 0.26 ± 0.09 nmol PBG.mg.tn‐1.h‐1; on δ-ALA-D (Brain, 500 μM), 0.24 ± 0.08 nmol PBG.mg.tn‐1.h‐1; at δ-ALA-D (Kidney, 10 μM), 1.02 ± 0.11 nmol PBG.mg.tn‐1.h‐1; on δ-ALA-D (Kidney, 50 μM) it was 0.96 ± 0.12 nmol PBG.mg.tn‐1.h‐1. The δ-ALA-D activity is 0.89 ± 0.12 nmol PBG.mg.tn‐1.h‐1 on δ-ALA-D (Kidney, 100 μM); 0.72 ± 0.07 nmol PBG.mg.tn‐1.h‐1 at δ-ALA-D (Kidney, 500 μM); 4.50 ± 0.60 nmol PBG.mg.tn‐1.h‐1 on δ-ALA-D (Liver, 10 μM); 4.22 ± 0.78 nmol PBG.mg.tn‐1.h‐1 on δ-ALA-D (Liver, 50 μM); 3.54 ± 0.84 nmol PBG.mg.tn‐1.h‐1 on δ-ALA-D (Liver, 100 μM); 2.84 ± 0.57 nmol PBG.mg.tn‐1.h‐1 on δ-ALA-D (Liver, 500 μM). For the same compound, the “Inhibition Zone” value was 23 mm in series [1]; 31.0 mm and 31 mm in series [2]; 22.5 mm in series [3]; 24.5 mm in series [4]; 23 mm in series [5]. In addition, the “ABTS radical scavenging, percentage of inhibition in relation to control” value in the series “ABTS radical scavenging” (50 μM) is given as 0.30 ± 0.33%; in “ABTS radical scavenging” (100 μM), 3.10 ± 0.48 %; in “ABTS radical scavenging” (500 μM), 17.05 ± 0.47 %.
Take `CC(C)=CCCC(C)(C/C=[N+](\C)[O-])Sc1ccccc1` (stereo not shown) [5c, (E)-N,3,7-trimethyl-3-(phenylthio)oct-6-en-1-imine oxide]: the δ-ALA-D activity is listed as 0.30 ± 0.10 nmol PBG.mg.tn‐1.h‐1 at δ-ALA-D (Brain, 10 μM); 0.28 ± 0.09 nmol PBG.mg.tn‐1.h‐1 on δ-ALA-D (Brain, 50 μM); 0.26 ± 0.08 nmol PBG.mg.tn‐1.h‐1 at δ-ALA-D (Brain, 100 μM); 0.26 ± 0.07 nmol PBG.mg.tn‐1.h‐1 at δ-ALA-D (Brain, 500 μM); 1.10 ± 0.12 nmol PBG.mg.tn‐1.h‐1 on δ-ALA-D (Kidney, 10 μM); 1.02 ± 0.12 nmol PBG.mg.tn‐1.h‐1 at δ-ALA-D (Kidney, 50 μM). Also, the δ-ALA-D activity on δ-ALA-D (Kidney, 100 μM) is 0.99 ± 0.10 nmol PBG.mg.tn‐1.h‐1; on δ-ALA-D (Kidney, 500 μM), 0.90 ± 0.07 nmol PBG.mg.tn‐1.h‐1; on δ-ALA-D (Liver, 10 μM) it was 4.63 ± 0.82 nmol PBG.mg.tn‐1.h‐1; on δ-ALA-D (Liver, 50 μM) it was 4.31 ± 0.81 nmol PBG.mg.tn‐1.h‐1; on δ-ALA-D (Liver, 100 μM), 4.12 ± 0.90 nmol PBG.mg.tn‐1.h‐1; at δ-ALA-D (Liver, 500 μM), 3.88 ± 0.87 nmol PBG.mg.tn‐1.h‐1. In addition, the “Inhibition Zone” value in series [2] is 26.0 mm and 26 mm; in series [3] it was 21.5 mm; in series [4], 24 mm; in series [5], 24 mm. The entries for the “ABTS radical scavenging, percentage of inhibition in relation to control” value in the series “ABTS radical scavenging” (50 μM), in “ABTS radical scavenging” (100 μM) and in the series “ABTS radical scavenging” (500 μM) were 4.18 ± 1.23%, 11.60 ± 1.50 % and 59.51 ± 4.16 %, respectively. Also, the IC50 in “ABTS radical scavenging” is 419 ± 35.8 µM.

(Values after PMC5590075, “Synthesis, Antimicrobial, and Antioxidant Activities of Chalcogen-Containing Nitrone Derivatives from (R)-citronellal” (Medicines, 2017).)
